The values below come from BindingDB's records for doi:10.7270/Q2TB15DB (Burnham Center For Chemical Genomics, 2011).

The assay has as its target T1, Endoribonuclease toxin MazF (Escherichia coli (strain K12), UniProt P0AE70).
T1 sequence (P0AE70 whole entry): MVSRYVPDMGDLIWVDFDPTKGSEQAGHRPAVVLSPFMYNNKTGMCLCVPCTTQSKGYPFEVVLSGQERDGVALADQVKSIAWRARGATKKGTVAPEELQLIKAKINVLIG
The assay is described as follows: substrate-only fluorescence increase artefacts – biochemical, single-stranded RNase substrate, counter-screen for MazEF activator project, dose response (AID 588502). A general note: A counterscreen serves to expose hits that act by an unwanted route or on another target.

The EC50 is the concentration that produces a half-maximal response. A high value points to a need for much substance. In turn, `CCOc1ccc(N=CCC(=O)c2ccc(OC)cc2)c([N+](=O)[O-])c1` registered an EC50 of 6.29 µM.

Turning to `O=C1N=c2ccccc2=C1NNc1ccc(F)cc1`, the EC50 was above 99 µM.

Take `Cc1ccc(Cl)c2c1=NC(=O)C=2NNc1ccccc1`: the EC50 worked out at 8.15 µM.

As for `N#CC(C(=O)c1ccc([N+](=O)[O-])o1)c1nc2ccccc2[nH]1` (stereo not drawn), the EC50 came to 5.53 µM.

As to `Cc1oc(C)c2c(=O)ccc3c(c12)OC(=N)C(C#N)C3c1ccccc1` (stereo not drawn), the EC50 is above 99 µM.

As to `CC1CC(=O)C2=C(C1)OC(=N)C(C#N)C2c1coc2ccccc2c1=O` (stereo not drawn), the EC50 is above 99 µM.

Turning to `O=C1N=c2ccccc2=C1NNc1ccccc1F`, the EC50 was found to be 31.7 µM.

In turn, `O=C1Nc2ccc([N+](=O)[O-])cc2C1=NNc1ccc(F)cc1` yielded an EC50 of 20.3 µM.

Molecule `Cc1ccc2nc(N3C(=O)C(=O)C(C(=O)c4ccco4)C3c3cccs3)sc2c1` (stereo not drawn) returned an EC50 above 99 µM.

On to `Cc1cc(O)n(-c2ccc(NCc3ccc(Cl)cc3)c([N+](=O)[O-])c2)c1O` [1-{4-[(4-chlorobenzyl)amino]-3-nitrophenyl}-3-methylpyrrolidine-2,5-dione], for which the EC50 is above 99 µM.

`COc1ccc(Nc2oc3cc(=O)ccc-3cc2C(=O)NCC2CCCO2)c(OC)c1` (stereo not drawn) [2-(2,4-dimethoxyanilino)-7-oxo-N-(2-oxolanylmethyl)-1-benzopyran-3-carboxamide] yielded an EC50 above 99 µM.

`CCCCOc1cccc(C2C(C(=O)c3ccc(C)o3)C(=O)C(=O)N2c2nnc(C)s2)c1` (stereo not drawn) [2-(3-butoxyphenyl)-3-(5-methylfuran-2-yl)carbonyl-1-(5-methyl-1,3,4-thiadiazol-2-yl)-4-oxidanyl-2H-pyrrol-5-one] gave an EC50 of 20.4 µM.

In turn, `CCOc1cccc(C2C(C(=O)c3ccc(C)o3)C(=O)C(=O)N2c2nccs2)c1` (stereo not drawn) [2-(3-ethoxyphenyl)-3-(5-methylfuran-2-yl)carbonyl-4-oxidanyl-1-(1,3-thiazol-2-yl)-2H-pyrrol-5-one] displayed an EC50 above 99 µM.

`Cc1[nH]c2ccccc2c1/C=C1\N=C(c2ccc(F)cc2)OC1=O` [2-(4-fluorophenyl)-4-[(2-methyl-1H-indol-3-yl)methylene]-1,3-oxazol-5(4H)-one] displayed an EC50 of 55.9 µM.

The molecule `Cc1nnc(N2C(=O)C(=O)C(C(=O)c3ccco3)C2c2ccc(C(C)(C)C)cc2)s1` (stereo not drawn) [2-(4-tert-butylphenyl)-3-(furan-2-carbonyl)-4-hydroxy-1-(5-methyl-1,3,4-thiadiazol-2-yl)-2H-pyrrol-5-one] returned an EC50 of 19.7 µM.

On to `O=[N+]([O-])c1ccc(N=NCc2ccccc2)c(F)c1` [2-fluoranyl-4-nitro-N-[(phenylmethylidene)amino]aniline], for which the EC50 is 27.2 µM.

On to `O=C1C(=O)N(c2nccs2)C(c2ccccc2)C1C(=O)c1cc2ccccc2o1` (stereo not drawn) [3-(1-benzofuran-2-carbonyl)-4-hydroxy-2-phenyl-1-(1,3-thiazol-2-yl)-2H-pyrrol-5-one], for which the EC50 was above 99 µM.

The molecule `C=CCOc1cccc(C2C(C(=O)c3ccc(C)o3)C(=O)C(=O)N2c2nccs2)c1` (stereo not drawn) [3-(5-methylfuran-2-yl)carbonyl-4-oxidanyl-2-(3-prop-2-enoxyphenyl)-1-(1,3-thiazol-2-yl)-2H-pyrrol-5-one] showed an EC50 above 99 µM.

Turning to `CSc1ccc(C2C(C(=O)c3ccco3)C(=O)C(=O)N2c2nnc(SC)s2)cc1` (stereo not drawn) [3-(furan-2-carbonyl)-4-hydroxy-2-(4-methylsulfanylphenyl)-1-(5-methylsulfanyl-1,3,4-thiadiazol-2-yl)-2H-pyrrol-5-one], the EC50 is above 99 µM.

`O=C1Nc2ccccc2C1=NNc1ccccc1` [3-(phenylhydrazo)-2-indolone] gave a 50% effective concentration (EC50) of 54.6 µM.

Turning to `COc1cccc(C2=Nc3nnnn3C(c3ccc(N(C)C)cc3)C2)c1` (stereo not drawn) [4-[5-(3-methoxyphenyl)-1,7-dihydro-[1,2,3,4]tetrazolo[1,5-a]pyrimidin-7-yl]-N,N-dimethyl-aniline], the half-maximal effective concentration (EC50) is above 99 µM.

The molecule `N#Cc1ccc(-n2c(O)c3[nH][nH]c(C(=O)c4ccc5ccccc5n4)c-3c2=O)cc1` [4-[(3aS,6aS)-4,6-dioxo-3-[oxo(2-quinolinyl)methyl]-3a,6a-dihydro-1H-pyrrolo[3,4-c]pyrazol-5-yl]benzonitrile] gave a concentration for a half-maximal effect (EC50) of 0.271 µM.

With `Cc1ccc(N/N=C2/C(=O)Nc3ccc(F)cc32)cc1` [5-fluoro-3-[2-(4-methylphenyl)hydrazono]indolin-2-one], the response was half-maximal at 29.9 µM (EC50).

For the molecule `O=c1cc2oc(O)c3cc(O)c(O)c(O)c3c-2oc1=O` [6,8,9,10-tetrahydroxypyran[3,2-c]isochromene-2,3-quinone], the EC50 is above 99 µM.

For `COCc1n[nH]c2c1C(c1cc(OC)c(O)c(OC)c1)C(C#N)C(=N)O2` (stereo not drawn) [6-azanyl-4-(3,5-dimethoxy-4-oxidanyl-phenyl)-3-(methoxymethyl)-2,4-dihydropyrano[2,3-c]pyrazole-5-carbonitrile], the EC50 was above 99 µM.

Regarding `Cn1c(C(C#N)C(=O)COc2ccc3ccccc3c2)nc2ccccc21` (stereo not drawn) [(2E)-2-(3-methyl-1H-benzimidazol-2-ylidene)-4-(2-naphthalenyloxy)-3-oxobutanenitrile], the EC50 is above 99 µM.

In turn, `COc1cc2c(cc1OC)C(CC(=O)c1ccc([N+](=O)[O-])c(C)c1)=NCC2` [(2Z)-2-(6,7-dimethoxy-3,4-dihydro-2H-isoquinolin-1-ylidene)-1-(3-methyl-4-nitrophenyl)ethanone] registered an EC50 of 43.8 µM.

The molecule `O=C1N=c2ccccc2=C1NNc1cccc(Cl)c1` [(3E)-1H-indole-2,3-dione 3-[(3-chlorophenyl)hydrazone]] had an EC50 above 99 µM.

Regarding `CCCCN1C(=O)C(=NNc2ccccc2O)c2ccccc21` [(3Z)-1-butyl-3-[(2-hydroxyphenyl)hydrazinylidene]indol-2-one], the EC50 is 69.5 µM.

`CCCN1C(=O)C(=NNc2ccc3ccccc3n2)c2ccccc21` [(3Z)-1-propyl-3-(2-quinolinylhydrazinylidene)-2-indolone] yielded an EC50 above 99 µM.

On to `Cc1ccc(NN=C2C(=O)N(CN3CCOCC3)c3ccccc32)cc1` [(3Z)-3-[(4-methylphenyl)hydrazinylidene]-1-(4-morpholinylmethyl)-2-indolone], for which the EC50 is 50.5 µM.

Turning to `O=C(c1ccc2ccccc2n1)c1[nH][nH]c2c(O)n(-c3cccc(F)c3)c(=O)c1-2` [(3aS,6aS)-5-(3-fluorophenyl)-3-[oxo(2-quinolinyl)methyl]-3a,6a-dihydro-1H-pyrrolo[3,4-c]pyrazole-4,6-dione], the EC50 is above 99 µM.

With `N=C(N)C1=CC(=O)/C(=C/C=c2ccc(=C(N)N)cc2)C=C1` [(4E)-4-[2-[4-[bis(azanyl)methylidene]cyclohexa-2,5-dien-1-ylidene]ethylidene]-3-oxidanylidene-cyclohexa-1,5-diene-1-carboximidamide;2-oxidanylethanesulfonic acid], the EC50 was above 99 µM.

For the molecule `O=C1NC(=O)N(C2CCCCC2)C(=O)C1=CCC=Nc1ccccc1` [(5Z)-5-[(E)-3-anilinoprop-2-enylidene]-1-cyclohexyl-1,3-diazinane-2,4,6-trione], the EC50 turned out to be 9.49 µM.

On to `Clc1cccc(C(Cc2nc3ccccc3[nH]2)N=Nc2ccccc2)c1` (stereo not drawn) [MLS000374846], for which the EC50 is above 99 µM.

Molecule `COc1ccc(CN=Nc2ccc([N+](=O)[O-])cc2S(=O)(=O)N2CCN(C)CC2)cc1` [MLS000553953] came in with an EC50 of 8.43 µM.

For the molecule `Cc1cccc(NNC2=c3cc(F)ccc3=NC2=O)c1` [MLS000673317], the EC50 is above 99 µM.

Take `O=c1[nH]c(N=NCc2ccc(F)cc2)nc2ccccc12` [MLS000700887]: the EC50 was above 99 µM.
